Where two headings read alike, the source gives them in different places.
Legend:
PC-3 cells = test: Cell Proliferation Assay (Cell Titer Glo), PC-3 cell line; assay type: cell-based; conditions: Homo sapiens, read-out: CPEC50 PC3
Outline: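 PC-3 cells, 1000 cells/well, left to adhere 3-5 h, then exposed for 3 days at 37° C to compounds as 1:3 serial dilutions from 500× DMSO stocks diluted in growth medium. Medium then replaced with fresh medium and viability read by Cell Titer Glo luminescence.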

A2780 cells = test: Cell Proliferation Assay (Cell Titer Glo), A2780; assay type: cell-based; conditions: Homo sapiens, read-out: CPEC50 A2780
Outline: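 Cells seeded at 1000/well, allowed to adhere 3-5 h, then exposed to DMSO-dissolved compounds for 3 days at 37° C., 5% CO2. Medium replaced before Cell Titer Glo addition; luminescence read after 10 min.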

PDK1 kinase = molecular target: T1, PDK1 kinase (Homo sapiens, UniProt O15530); test: PDK1 Kinase Alpha Screen Assay; assay type: biochemical; conditions: read-out: PDK1 IC50
T1 sequence (O15530 1-556): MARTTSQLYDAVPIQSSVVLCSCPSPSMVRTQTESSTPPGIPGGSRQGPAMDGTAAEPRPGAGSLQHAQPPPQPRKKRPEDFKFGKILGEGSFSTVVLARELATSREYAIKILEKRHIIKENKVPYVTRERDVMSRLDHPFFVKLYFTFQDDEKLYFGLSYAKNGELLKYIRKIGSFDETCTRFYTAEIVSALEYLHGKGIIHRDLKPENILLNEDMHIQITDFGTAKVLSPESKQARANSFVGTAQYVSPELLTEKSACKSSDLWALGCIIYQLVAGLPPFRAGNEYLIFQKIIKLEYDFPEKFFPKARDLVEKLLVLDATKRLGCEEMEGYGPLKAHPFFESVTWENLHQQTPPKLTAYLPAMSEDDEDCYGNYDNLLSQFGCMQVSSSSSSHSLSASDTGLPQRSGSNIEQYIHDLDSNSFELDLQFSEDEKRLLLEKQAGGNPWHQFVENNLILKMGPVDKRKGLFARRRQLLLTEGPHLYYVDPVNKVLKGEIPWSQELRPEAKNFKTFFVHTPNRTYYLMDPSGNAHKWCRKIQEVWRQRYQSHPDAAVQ
Outline: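 Test compounds were incubated with PDK1 kinase, 10 uM ATP and 50 nM biotinylated peptide substrate for 3-18 hours at pH 7.5 with 2.5% DMSO. Peptide phosphorylation was then detected by AlphaScreen proximity luminescence using a phospho-(Ser/Thr) PKA substrate antibody.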

[1] = PC-3, Cell Proliferation Assay, PC3
[2] = Cell Proliferation Assay, A2780
[3] = PC-3, cell proliferation, PC3 cells
[4] = cell proliferation, A2780 cells

Row | SMILES | EC50 (PC-3 cells; [1]) | EC50 (A2780 cells; [2]) | IC50 (PDK1 kinase; PDK1 Kinase Alpha Screen Assay) | EC50 (PC-3 cells; [3]) | EC50 (A2780 cells; [4]) | EC50 (PC-3 cells; PC-3, PC3 cells) | EC50 (A2780 cells; A2780 cells) | IC50 (PDK1 kinase)
1 | c1csc(-c2cc3cnc(Nc4ccc(N5CCOCC5)cc4)nc3cc2OC2CCNCC2)n1 [Compound 645, N-(4-morpholinophenyl)-7-(piperidin-4-yloxy)-6-(thiazol-2-yl)quinazolin-2-amine] | < 5 µM | < 5 µM | < 5 µM | – | – | – | – | –
2 | C#Cc1cc2cnc(Nc3ccc(N4CCOCC4)cc3)nc2cc1OC1CCNCC1 [Compound 646, 6-Ethynyl-N-(4-morpholinophenyl)-7-(piperidin-4-yloxy)quinazolin-2-amine] | < 5 µM | < 5 µM | < 5 µM | – | – | – | – | –
3 | O=C(c1ccc(Nc2ncc3cc(-c4nccs4)c(OC4CCNCC4)cc3n2)cc1)N1CCOCC1 [Compound 649, morpholino(4-(7-(piperidin-4-yloxy)-6-(thiazol-2-yl)quinazolin-2-ylamino)phenyl)methanone] | < 5 µM | < 5 µM | < 5 µM | – | – | – | – | –
4 | CN1CCC(Oc2ccc3cnc(Nc4ccc(S(=O)(=O)N5CCOCC5)cc4)nc3c2)CC1 [Compound 869, 7-(1-methylpiperidin-4-yloxy)-N-(4-(morpholinosulfonyl)phenyl)quinazolin-2-amine] | – | – | < 5 µM | < 5 µM | < 5 µM | – | – | –
5 | NS(=O)(=O)c1ccc(Nc2ncc3cc(F)cc(-c4ccc5c(c4)CCNC5=O)c3n2)cc1 [Compound 884, 4-(6-fluoro-8-(1-oxo-1,2,3,4-tetrahydroisoquinolin-6-yl)quinazolin-2-ylamino)benzenesulfonamide] | – | – | < 5 µM | < 5 µM | < 5 µM | – | – | –
6 | COCCNc1ccc(-c2cc(F)cc3cnc(Nc4ccc(S(N)(=O)=O)cc4)nc23)cn1 [Compound 893, 4-(6-fluoro-8-(6-(2-methoxyethylamino)pyridin-3-yl)quinazolin-2-ylamino)benzenesulfonamide] | – | – | < 5 µM | < 5 µM | < 5 µM | – | – | –
7 | NS(=O)(=O)c1ccc(Nc2ncc3cc(F)cc(-c4ccc(N5CCOCC5)nc4)c3n2)cc1 [Compound 894, 4-(6-fluoro-8-(6-morpholinopyridin-3-yl)quinazolin-2-ylamino)benzenesulfonamide] | – | – | < 5 µM | < 5 µM | < 5 µM | – | – | –
8 | Cn1cc(-c2ccc3cnc(Nc4ccc(S(N)(=O)=O)cc4)nc3c2-c2ccccc2)cn1 [Compound 904, 4-(7-(1-methyl-1H-pyrazol-4-yl)-8-phenylquinazolin-2-ylamino)benzenesulfonamide] | – | – | < 5 µM | < 5 µM | < 5 µM | – | – | –
9 | COCCNc1ccc(-c2c(-c3cnn(C)c3)ccc3cnc(Nc4ccc(S(N)(=O)=O)cc4)nc23)cn1 [Compound 908, 4-(8-(6-(2-methoxyethylamino)pyridin-3-yl)-7-(1-methyl-1H-pyrazol-4-yl)quinazolin-2-ylamino)benzenesulfonamide] | – | – | < 5 µM | < 5 µM | < 5 µM | – | – | –
10 | CN1CCN(c2ccc(-c3c(-c4cnn(C)c4)ccc4cnc(Nc5ccc(S(N)(=O)=O)cc5)nc34)cn2)CC1 [Compound 910, 4-(7-(1-methyl-1H-pyrazol-4-yl)-8-(6-(4-methylpiperazin-1-yl)pyridin-3-yl)quinazolin-2-ylamino)benzenesulfonamide] | – | – | < 5 µM | < 5 µM | < 5 µM | – | – | –
11 | NS(=O)(=O)c1ccc(Nc2ncc3ccc(-c4ccccc4)c(OC4CCNCC4)c3n2)cc1 [Compound 911, 4-(7-phenyl-8-(piperidin-4-yloxy)quinazolin-2-ylamino)benzenesulfonamide] | – | – | < 5 µM | < 5 µM | < 5 µM | – | – | –
12 | NS(=O)(=O)c1ccc(Nc2ncc3cc(F)cc(-c4ccc(N5CCS(=O)(=O)CC5)nc4)c3n2)cc1 [Compound 913] | – | – | < 5 µM | < 5 µM | < 5 µM | – | – | –
13 | CC(C)Nc1ccc(-c2cc(F)cc3cnc(Nc4ccc(S(N)(=O)=O)cc4)nc23)cn1 [Compound 914, 4-(6-fluoro-8-(6-(isopropylamino)pyridin-3-yl)quinazolin-2-ylamino)benzenesulfonamide] | – | – | < 5 µM | < 5 µM | < 5 µM | – | – | –
14 | CN1CCN(C(=O)c2ccc(-c3cc(F)cc4cnc(Nc5ccc(S(N)(=O)=O)cc5)nc34)cc2)CC1 [Compound 915, 4-(6-fluoro-8-(4-(4-methylpiperazine-1-carbonyl)phenyl)quinazolin-2-ylamino)benzenesulfonamide] | – | – | – | – | – | < 5 µM | < 5 µM | < 5 µM
15 | CC(C)N1CCN(Cc2cccc3cnc(Nc4ccc(S(N)(=O)=O)cc4)nc23)CC1 [Compound 925, 4-(8-((4-isopropylpiperazin-1-yl)methyl)quinazolin-2-ylamino)benzenesulfonamide] | – | – | – | – | – | 5 to 10 µM | < 5 µM | < 5 µM

Further lines, results first:

Row | EC50 (PC-3 cells; [1]) | EC50 (A2780 cells; [2]) | IC50 (PDK1 kinase; PDK1 Kinase Alpha Screen Assay) | EC50 (PC-3 cells; [3]) | EC50 (A2780 cells; [4]) | EC50 (PC-3 cells; PC-3, PC3 cells) | EC50 (A2780 cells; A2780 cells) | IC50 (PDK1 kinase) | SMILES
16 | < 5 µM | < 5 µM | < 5 µM | – | – | – | – | – | Cc1cc2cnc(Nc3ccc(N4CCOCC4)cc3)nc2cc1OC1CCNCC1 [Compound 647, 6-methyl-N-(4-morpholinophenyl)-7-(piperidin-4-yloxy)quinazolin-2-amine]
17 | < 5 µM | < 5 µM | < 5 µM | – | – | – | – | – | Cc1cc2cnc(Nc3ccc(C(=O)N4CCOCC4)cc3)nc2cc1OC1CCNCC1 [Compound 648, (4-(6-methyl-7-(piperidin-4-yloxy)quinazolin-2-ylamino)phenyl)(morpholino)methanone]
18 | – | – | < 5 µM | < 5 µM | < 5 µM | – | – | – | Nc1ccc(-c2cc(F)cc3cnc(Nc4ccc(S(N)(=O)=O)cc4)nc23)cn1 [Compound 885, 4-(8-(6-aminopyridin-3-yl)-6-fluoroquinazolin-2-ylamino)benzenesulfonamide]
19 | – | – | < 5 µM | < 5 µM | < 5 µM | – | – | – | CN1CCN(c2ccc(-c3cc(F)cc4cnc(Nc5ccc(S(N)(=O)=O)cc5)nc34)cn2)CC1 [Compound 888, 4-(6-fluoro-8-(6-(4-methylpiperazin-1-yl)pyridin-3-yl)quinazolin-2-ylamino)benzenesulfonamide]
20 | – | – | < 5 µM | < 5 µM | < 5 µM | – | – | – | NS(=O)(=O)c1ccc(Nc2ncc3cc(F)cc(-c4ccc(NCCN5CCCC5)nc4)c3n2)cc1 [Compound 892, 4-(6-fluoro-8-(6-(2-(pyrroidin-1-yl)ethylamino)pyridin-3-yl)quinazolin-2-ylamino)benzenesulfonamide]
21 | – | – | < 5 µM | < 5 µM | < 5 µM | – | – | – | Cn1cc(-c2ccc3cnc(Nc4ccc(S(N)(=O)=O)cc4)nc3c2-c2ccc(N)nc2)cn1 [Compound 905, 4-(8-(6-aminopyridin-3-yl)-7-(1-methyl-1H-pyrazol-4-yl)quinazolin-2-ylamino)benzenesulfonamide]
22 | – | – | < 5 µM | < 5 µM | < 5 µM | – | – | – | CN1CCN(C(=O)c2ccc(-c3c(-c4cnn(C)c4)ccc4cnc(Nc5ccc(S(N)(=O)=O)cc5)nc34)cc2)CC1 [Compound 906, 4-(7-(1-methyl-1H-pyrazol-4-yl)-8-(4-(4-methylpiperazine-1-carbonyl)phenyl)quinazolin-2-ylamino)benzenesulfonamide]
23 | – | – | < 5 µM | < 5 µM | < 5 µM | – | – | – | Cn1cc(-c2ccc3cnc(Nc4ccc(S(N)(=O)=O)cc4)nc3c2-c2ccc(F)nc2)cn1 [Compound 907, 4-(8-(6-fluoropyridin-3-yl)-7-(1-methyl-1H-pyrazol-4-yl)quinazolin-2-ylamino)benzenesulfonamide]
24 | – | – | < 5 µM | < 5 µM | < 5 µM | – | – | – | Cn1cc(-c2ccc3cnc(Nc4ccc(S(N)(=O)=O)cc4)nc3c2-c2ccc(N3CCOCC3)nc2)cn1 [Compound 909, 4-(7-(1-methyl-1H-pyrazol-4-yl)-8-(6-morpholinopyridin-3-yl)quinazolin-2-ylamino)benzenesulfonamide]

Reference: patent US7932262B2 (Novartis AG, priority 2006, dated 2011)
